{"source": "ChEMBL document CHEMBL5500403", "about": "“Discovery of a Double-Stapled Short Peptide as a Long-Acting HIV-1 Inactivator with Potential for Oral Bioavailability” (J Med Chem, 2024)", "key": {"[1]": {"test_system": "Human immunodeficiency virus 1", "assay": "Binding affinity to cytoplasmic LLP1 domain of HIV-1 GP41 assessed as change in entropy by isothermal titration calorimetry"}, "[2]": {"assay": "Stability in rat liver assessed as parent compound remaining at 1 ug/ml incubated for 1 hr by LC-MS/MS analysis", "format": "ADME, tissue-based", "conditions": "at 1 µg/mL, read-out: Stability"}, "[3]": {"test_system": "Human immunodeficiency virus 1", "assay": "Antiviral activity against T20-resistant HIV-1 NL4-3 harboring […] V38E and N42S mutant infected in human MT2 cells assessed as inhibition of viral growth pretreated with virus for 30 mins followed by infection with cells incubated for 72 hrs by ELISA", "format": "functional, organism-based"}, "[4]": {"assay": "Plasma protein binding in human by LC-MS/MS analysis", "format": "ADME, cell-free", "conditions": "read-out: PPB (converted)"}, "[5]": {"test_system": "Human immunodeficiency virus 1", "assay": "Binding affinity to cytoplasmic LLP1 domain of HIV-1 GP41 assessed as change in enthalpy by isothermal titration calorimetry"}, "[6]": {"assay": "Toxicity in male BALB/c mouse assessed as change in body weight at 100 mg/kg,iv administration measured upto 14 days", "format": "organism-based", "conditions": "in vivo, 336 h, time < 14 day"}, "[7]": {"assay": "Toxicity in Sprague-Dawley rat assessed as inflammatory cell infiltration in kidney at 50 mg/kg,iv administration measured after 14 days by hematoxylin and eosin staining based assay", "format": "organism-based", "conditions": "in vivo, 336 h, time 14 day"}, "[8]": {"assay": "Toxicity in female BALB/c mouse assessed as change in body weight at 20 mg/kg,iv administration measured upto 14 days", "format": "organism-based", "conditions": "in vivo, 336 h, time < 14 day"}, "ACH-2 cell line [9]": {"test_system": "ACH-2 cell line", "assay": "Cytotoxicity against chidamide reactivated human ACH-2 cell line infected with latent HIV-1 assessed as reduction in cell viability at 1.25 to 5 uM", "format": "functional, cell-based", "conditions": "dose 1.25-5 µM"}, "[10]": {"assay": "Toxicity in Sprague-Dawley rat assessed as cell degeneration in liver at 50 mg/kg,iv administration measured after 14 days by hematoxylin and eosin staining based assay", "format": "organism-based", "conditions": "in vivo, 336 h, time 14 day"}, "[11]": {"assay": "Toxicity in BALB/c mouse assessed as change in serum creatinine level at 100 mg/kg,iv administration measured upto 6 days", "format": "organism-based", "conditions": "in vivo, 144 h, time < 6 day"}, "[12]": {"assay": "Toxicity in BALB/c mouse assessed as change in serum ALT level at 20 mg/kg,iv administration measured upto 6 days", "format": "organism-based", "conditions": "in vivo, 144 h, time < 6 day"}, "[13]": {"test_system": "Human immunodeficiency virus 1", "assay": "Antiviral activity against T20-resistant HIV-1 NL4-3 harboring […] N38A and N42T mutant infected in human MT2 cells assessed as inhibition of viral growth pretreated with virus for 30 mins followed by infection with cells incubated for 72 hrs by ELISA", "format": "functional, organism-based"}, "[14]": {"assay": "Drug concentration in Sprague-Dawley rat plasma assessed as fold increase in drug uptake at 10 mg/kg,iv administrated upto 8 days by LC-MS/MS analysis", "format": "ADME, organism-based", "conditions": "in vivo, 192 h, time < 8 day"}, "[15]": {"assay": "Toxicity in Sprague-Dawley rat assessed as necrosis in liver at 50 mg/kg,iv administration measured after 14 days by hematoxylin and eosin staining based assay", "format": "organism-based", "conditions": "in vivo, 336 h, time 14 day"}, "[16]": {"test_system": "Human immunodeficiency virus 1", "assay": "Antiviral activity against T20-resistant HIV-1 NL4-3 harboring […] V38E and N42S mutant assessed as reduction in viral growth by measuring p24 antigen level incubated for 2 hrs by ELISA", "format": "functional, organism-based"}, "[17]": {"test_system": "Human immunodeficiency virus 1", "assay": "Antiviral activity against HIV-1 IIIB infected in human MT2 cells assessed as inhibition of viral growth at 5 uM preincubation of compound with 20% HSA", "format": "functional, organism-based"}, "[18]": {"assay": "Toxicity in BALB/c mouse assessed as change in serum creatinine level at 20 mg/kg,iv administration measured upto 6 days", "format": "organism-based", "conditions": "in vivo, 144 h, time < 6 day"}, "[19]": {"assay": "Toxicity in Sprague-Dawley rat assessed as histopathological change in liver at 50 mg/kg,iv administration measured after 14 days by hematoxylin and eosin staining based assay", "format": "organism-based", "conditions": "in vivo, 336 h, time 14 day"}, "[20]": {"assay": "Drug concentration in Sprague-Dawley rat plasma at 10 mg/kg,iv administrated upto 8 days by LC-MS/MS analysis", "format": "ADME, organism-based", "conditions": "in vivo, 192 h, time < 8 day"}, "[21]": {"assay": "Apparent permeability in human Caco-2 cells at 5 uM", "format": "ADME, cell-based"}, "[22]": {"assay": "Toxicity in Sprague-Dawley rat assessed as inflammatory cell infiltration in liver at 50 mg/kg,iv administration measured after 14 days by hematoxylin and eosin staining based assay", "format": "organism-based", "conditions": "in vivo, 336 h, time 14 day"}, "[23]": {"test_system": "Human immunodeficiency virus 1", "assay": "Antiviral activity against HIV-1 IIIB infected in human MT2 cells assessed as inhibition of viral growth pretreated with virus for 30 mins followed by infection with cells incubated for 72 hrs by ELISA", "format": "functional, organism-based", "conditions": "Human immunodeficiency virus 1, IIIB"}, "[24]": {"assay": "Total clearance in Sprague-Dawley rat at 10 mg/kg,iv administration measured upto 9 days by LC-MS/MS analysis", "format": "ADME, organism-based", "conditions": "in vivo, 216 h, time < 9 day"}, "[25]": {"test_system": "Human immunodeficiency virus 1", "assay": "Antiviral activity against T20-resistant HIV-1 NL4-3 harboring […] N38A and N42T mutant assessed as reduction in viral growth by measuring p24 antigen level incubated for 2 hrs by ELISA", "format": "functional, organism-based"}, "[26]": {"assay": "Toxicity in male BALB/c mouse assessed as change in body weight at 20 mg/kg,iv administration measured upto 14 days", "format": "organism-based", "conditions": "in vivo, 336 h, time < 14 day"}, "SARS-CoV-2": {"test_system": "SARS-CoV-2", "assay": "Antiviral activity against SARS-CoV-2 infected in human Caco-2 cells assessed as inhibition of viral growth at 2000 nM", "format": "functional, organism-based", "conditions": "Severe acute respiratory syndrome coronavirus 2"}, "[27]": {"assay": "Elimination half life in Sprague-Dawley rat at 10 mg/kg,iv administration measured upto 9 days by LC-MS/MS analysis", "format": "ADME, organism-based", "conditions": "in vivo, time < 9 day, read-out: beta t1/2"}, "[28]": {"assay": "Stability in Sprague-Dawley rat liver microsomes in presence of NADPH by LC-MS/MS analysis", "format": "ADME, Microsome"}, "[29]": {"assay": "Toxicity in Sprague-Dawley rat assessed as change in serum creatinine level at 50 mg/kg,iv administration measured upto 6 days", "format": "organism-based", "conditions": "in vivo, 144 h, time < 6 day"}, "[30]": {"test_system": "Human immunodeficiency virus 1", "assay": "Antiviral activity against T20-resistant HIV-1 NL4-3 harboring […] N42T and N43K mutant infected in human MT2 cells assessed as inhibition of viral growth pretreated with virus for 30 mins followed by infection with cells incubated for 72 hrs by ELISA", "format": "functional, organism-based"}, "[31]": {"assay": "Toxicity in BALB/c mouse assessed as histopathological change in liver at 20 mg/kg,iv administration measured after 14 days by hematoxylin and eosin staining based assay", "format": "organism-based", "conditions": "in vivo, 336 h, time 14 day"}, "ACH-2 cell line [32]": {"test_system": "ACH-2 cell line", "assay": "Cytotoxicity against chidamide non-reactivated human ACH-2 cell line infected with latent HIV-1 assessed as reduction in cell viability at 1.25 to 5 uM", "format": "functional, cell-based", "conditions": "dose 1.25-5 µM"}, "[33]": {"assay": "Biodistribution in Sprague-Dawley rat brain at 1 mg/kg,iv administration measured upto 12 days by LC-MS/MS analysis", "format": "ADME, organism-based", "conditions": "in vivo, 288 h, time < 12 day"}, "[34]": {"assay": "Stability in rat plasma assessed as parent compound remaining at 1 ug/ml incubated for 1 hr by LC-MS/MS analysis", "format": "ADME, cell-free", "conditions": "at 1 µg/mL, read-out: Stability"}, "[35]": {"assay": "Stability in human liver microsomes in presence of NADPH by LC-MS/MS analysis", "format": "ADME, Microsome"}, "[36]": {"test_system": "Human immunodeficiency virus 1", "assay": "Binding affinity to cytoplasmic LLP1 domain of HIV-1 GP41 assessed as binding constant by isothermal titration calorimetry"}, "[37]": {"assay": "Selectivity index, ratio of CC50 for cytotoxicity against human MT2 cells to IC50 for antiviral activity against HIV-1 IIIB infected in human MT2 cells", "format": "toxicity, cell-based", "conditions": "read-out: Ratio CC50/IC50"}, "[38]": {"assay": "Plasma protein binding in rat by LC-MS/MS analysis", "format": "ADME, cell-free", "conditions": "read-out: PPB (converted)"}, "[39]": {"assay": "Toxicity in Sprague-Dawley rat assessed as neural damage by measuring NeuN positive cell at 50 mg/kg,iv administration measured after 14 days", "format": "organism-based", "conditions": "in vivo, 336 h, time 14 day"}}, "note": "The source made the active and inactive calls. No cut-off for these calls is given here. Bridge positions count the residues as written; N and C are the ends. Square brackets hold non-standard residues; d marks the D form. Peptide text beside a SMILES is read from it. S5 = C=CCCC[C@](C)(N)C(=O)O"}
{"smiles": "CC(=O)NCC(=O)N[C@@]1(C)CCC/C=C\\CCC[C@@](C)(C(=O)N[C@@H](Cc2ccc(O)cc2)C(=O)N[C@@H](CC(C)C)C(=O)N[C@@]2(C)CCC/C=C\\CCC[C@@](C)(C(=O)N[C@@H](Cc3ccc(O)cc3)C(=O)N[C@@H](Cc3c[nH]c4ccccc34)C(N)=O)NC(=O)[C@H](CC(C)C)NC(=O)[C@H](CC(C)C)NC(=O)[C@H](CC(N)=O)NC2=O)NC(=O)[C@H](CC(C)C)NC(=O)[C@H](C)NC(=O)[C@H](CCC(=O)O)NC1=O", "note": "(Ac-G[S5]EAL[S5]YL[S5]NLL[S5]YW-NH2; staple (Z) 2-6, 9-13)", "values": [{"measurement": "deltaS", "setting": "[1]", "result": -70.2, "unit": "cal/mol/deg"}, {"measurement": "remaining at 1 h, 1 ug/ml", "setting": "[2]", "result": 100, "unit": "%"}, {"measurement": "IC50", "setting": "[3]", "result": 0.0326, "unit": "µM"}, {"measurement": "fraction unbound", "setting": "[4]", "result": 0.182}, {"measurement": "deltaH", "setting": "[5]", "result": "-2.84 10^4cal/mol"}, {"measurement": "Activity", "setting": "[6]", "result": "Non-Toxic"}, {"measurement": "Activity", "setting": "[7]", "result": "Non-Toxic"}, {"measurement": "Activity", "setting": "[8]", "result": "Non-Toxic"}, {"measurement": "Activity", "setting": "ACH-2 cell line [9]", "result": "Active"}, {"measurement": "Activity", "setting": "[10]", "result": "Non-Toxic"}, {"measurement": "Activity", "setting": "[11]", "result": "Non-Toxic"}, {"measurement": "Activity", "setting": "[12]", "result": "Non-Toxic"}, {"measurement": "IC50", "setting": "[13]", "result": 0.0122, "unit": "µM"}, {"measurement": "fold change (FC)", "setting": "[14]", "result": 8.3}, {"measurement": "Activity", "setting": "[15]", "result": "Non-Toxic"}, {"measurement": "EC50", "setting": "[16]", "result": 0.0506, "unit": "µM"}, {"measurement": "Activity", "setting": "[17]", "result": "Active"}, {"measurement": "Activity", "setting": "[18]", "result": "Non-Toxic"}, {"measurement": "Activity", "setting": "[19]", "result": "Non-Toxic"}, {"measurement": "Drug uptake", "setting": "[20]", "result": "Active"}, {"measurement": "Papp at 5 µM", "setting": "[21]", "result": "< 0.02", "unit": "×10⁻⁶ cm/s"}, {"measurement": "Activity", "setting": "[22]", "result": "Non-Toxic"}, {"measurement": "IC50", "setting": "[23]", "result": 0.0235, "unit": "µM"}, {"measurement": "CL", "setting": "[24]", "result": 0.2, "unit": "mL/min/kg"}, {"measurement": "EC50", "setting": "[25]", "result": 0.0231, "unit": "µM"}, {"measurement": "Activity", "setting": "[26]", "result": "Non-Toxic"}, {"measurement": "Activity", "setting": "SARS-CoV-2", "result": "inactive"}, {"measurement": "half-life", "setting": "[27]", "result": "> 70", "unit": "h"}, {"measurement": "Stability", "setting": "[28]", "result": "Stable"}, {"measurement": "Activity", "setting": "[29]", "result": "Non-Toxic"}, {"measurement": "IC50", "setting": "[30]", "result": 0.123, "unit": "µM"}, {"measurement": "Activity", "setting": "[31]", "result": "Non-Toxic"}, {"measurement": "Activity", "setting": "ACH-2 cell line [32]", "result": "inactive"}, {"measurement": "Drug uptake", "setting": "[33]", "result": "Active"}, {"measurement": "remaining at 1 h, 1 ug/ml", "setting": "[34]", "result": "> 99", "unit": "%"}, {"measurement": "Stability", "setting": "[35]", "result": "Stable"}, {"measurement": "K", "setting": "[36]", "result": "2.77 10^5/M"}, {"measurement": "selectivity ratio", "setting": "[37]", "result": 216}, {"measurement": "fraction unbound", "setting": "[38]", "result": 0.153}, {"measurement": "Activity", "setting": "[39]", "result": "Non-Toxic"}]}
